Data as given in PubChem BioAssay AID330 (DTP/NCI, 2004).
Several values for one entry are separate records, joined by “and”; a condition that tells them apart may be missing. Identical values can stand only once. Toxic doses and inconclusive results are not listed. How the source made its calls: active means survival T/C of 150% or more; inactive means T/C below 125% in these data.

System: P388 leukemia ip, CD2F1 mice, survival T/C
Test: NCI In Vivo Anticancer Drug Screen. Data for tumor model P388 Leukemia (intraperitoneal) in CD2F1 (CDF1) mice
Conditions: endpoint: median survival time, higher = longer survival
Method in brief: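 Mice carrying the transplanted tumor received test compound or vehicle. Survival was recorded in each group, and the value is the treated-group measurement divided by that of the vehicle-treated control group.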

[1] = dose: 50.0 mg/kg/injection, schedule: Q01DX005 (ip), vehicle: Klucel (hydroxypropylcellulose) (HPC)
[2] = dose: 100.0 mg/kg/injection, schedule: Q01DX009 (ip), vehicle: saline
[3] = dose: 200.0 mg/kg/injection, schedule: Q01DX009 (ip), vehicle: saline
[4] = dose: 50.0 mg/kg/injection, schedule: Q01DX009 (ip), vehicle: saline with Tween-80
[5] = dose: 100.0 mg/kg/injection, schedule: Q01DX009 (ip), vehicle: saline with Tween-80
[6] = dose: 200.0 mg/kg/injection, schedule: Q01DX009 (ip), vehicle: saline with Tween-80
[7] = dose: 60.0 mg/kg/injection, schedule: Q01DX005 (ip), vehicle: saline
[8] = dose: 120.0 mg/kg/injection, schedule: Q01DX005 (ip), vehicle: saline
[9] = dose: 12.5 mg/kg/injection, schedule: Q01DX009 (ip), vehicle: water
[10] = dose: 25.0 mg/kg/injection, schedule: Q01DX009 (ip), vehicle: water
[11] = dose: 50.0 mg/kg/injection, schedule: Q01DX009 (ip), vehicle: water
[12] = dose: 100.0 mg/kg/injection, schedule: Q01DX009 (ip), vehicle: water
[13] = dose: 60.0 mg/kg/injection, schedule: Q01DX005 (ip), vehicle: saline with Tween-80
[14] = dose: 240.0 mg/kg/injection, schedule: Q01DX005 (ip), vehicle: saline with Tween-80
[15] = dose: 120.0 mg/kg/injection, schedule: Q01DX005 (ip), vehicle: saline with Tween-80

Measured: T/C

CCN(CC)CCSc1ccccc1
inactive: [1] 100 % of control | dose: 100.0 mg/kg/injection, schedule: Q01DX005 (ip), vehicle: Klucel (hydroxypropylcellulose) (HPC) 102 % of control

CCOC(=O)c1cn2ccccc2c(C(C)=O)c1=N
inactive: dose: 100.0 mg/kg/injection, schedule: Q04DX003 (ip), vehicle: saline 100 % of control | dose: 200.0 mg/kg/injection, schedule: Q04DX003 (ip), vehicle: saline 100 % of control | dose: 400.0 mg/kg/injection, schedule: Q04DX003 (ip), vehicle: saline 94 % of control

CCNc1nc(Cl)nc(NCC)n1
inactive: [2] 98 % of control | [3] 91 % of control | dose: 400.0 mg/kg/injection, schedule: Q01DX009 (ip), vehicle: saline 94 % of control

CCOC(=O)c1c(O)cc(C)[nH]c1=O
inactive: [4] 103 % of control and 96 % of control | [5] 100 % of control and 94 % of control and 98 % of control | [6] 103 % of control and 106 % of control and 93 % of control | dose: 400.0 mg/kg/injection, schedule: Q01DX009 (ip), vehicle: saline with Tween-80 104 % of control and 106 % of control and 122 % of control

O=c1c2cc3c(=O)n(CC#CCN4CCCCC4)c(=O)c3cc2c(=O)n1CC#CCN1CCCCC1
inactive: dose: 50.0 mg/kg/injection, schedule: Q01DX005 (ip), vehicle: saline with Tween-80 100 % of control | dose: 100.0 mg/kg/injection, schedule: Q01DX005 (ip), vehicle: saline with Tween-80 100 % of control | dose: 200.0 mg/kg/injection, schedule: Q01DX005 (ip), vehicle: saline with Tween-80 98 % of control

NCCCSc1ccccc1
inactive: [7] 99 % of control | [8] 97 % of control

Cc1cc2nc(NN=O)sc2cc1C
inactive: dose: 3.12 mg/kg/injection, schedule: Q01DX009 (ip), vehicle: water 109 % of control | dose: 6.25 mg/kg/injection, schedule: Q01DX009 (ip), vehicle: water 97 % of control | [9] 106 % of control | [10] 104 % of control (2×) and 97 % of control | [11] 102 % of control and 103 % of control and 108 % of control | [12] 123 % of control

CCCCN(CCCC)CCCCCCCC(O)c1cc2ccccc2c2ccccc12 (configuration not stated)
inactive: dose: 50.0 mg/kg/injection, schedule: Q01DX005 (ip), vehicle: saline + Tween-80 + alcohol 113 % of control | dose: 100.0 mg/kg/injection, schedule: Q01DX005 (ip), vehicle: saline + Tween-80 + alcohol 110 % of control

CCOC(=O)c1ccc(NC(C)=NC(C)(C)C)cc1
inactive: dose: 50.0 mg/kg/injection, schedule: Q01DX009 (ip), vehicle: Klucel (hydroxypropylcellulose) (HPC) 93 % of control | dose: 100.0 mg/kg/injection, schedule: Q01DX009 (ip), vehicle: Klucel (hydroxypropylcellulose) (HPC) 91 % of control | dose: 200.0 mg/kg/injection, schedule: Q01DX009 (ip), vehicle: Klucel (hydroxypropylcellulose) (HPC) 102 % of control

CC1(C)C(C#N)C(=O)NC(=O)C1C#N (configuration not stated)
inactive: [9] 97 % of control | [10] 95 % of control | [11] 93 % of control | [12] 104 % of control | dose: 200.0 mg/kg/injection, schedule: Q01DX009 (ip), vehicle: water 101 % of control

CCCCN(CCCC)c1nsc(N2CCCCC2)n1
inactive: dose: 45.0 mg/kg/injection, schedule: Q01DX009 (ip), vehicle: saline with Tween-80 113 % of control | dose: 90.0 mg/kg/injection, schedule: Q01DX009 (ip), vehicle: saline with Tween-80 117 % of control | dose: 180.0 mg/kg/injection, schedule: Q01DX009 (ip), vehicle: saline with Tween-80 118 % of control

CN=C(N)NN=C(c1ccc(C)cc1)c1ccc(C)cc1
inactive: dose: 12.5 mg/kg/injection, schedule: Q04DX002 (ip), vehicle: saline with Tween-80 91 % of control | dose: 25.0 mg/kg/injection, schedule: Q04DX002 (ip), vehicle: saline with Tween-80 104 % of control | dose: 100.0 mg/kg/injection, schedule: Q04DX002 (ip), vehicle: saline with Tween-80 96 % of control | dose: 200.0 mg/kg/injection, schedule: Q04DX002 (ip), vehicle: saline with Tween-80 100 % of control

Cc1cc(N/N=C/c2ccc3c(c2)OCO3)c2cc3c(cc2n1)OCO3
inactive: dose: 3.12 mg/kg/injection, schedule: Q01DX005 (ip), vehicle: Klucel (hydroxypropylcellulose) (HPC) 104 % of control | dose: 6.25 mg/kg/injection, schedule: Q01DX005 (ip), vehicle: Klucel (hydroxypropylcellulose) (HPC) 95 % of control | dose: 12.5 mg/kg/injection, schedule: Q01DX005 (ip), vehicle: Klucel (hydroxypropylcellulose) (HPC) 102 % of control and 95 % of control | dose: 25.0 mg/kg/injection, schedule: Q01DX005 (ip), vehicle: Klucel (hydroxypropylcellulose) (HPC) 107 % of control and 114 % of control | [1] 103 % of control

CNC(=O)OCc1c(C)sc(-c2ccccc2)c1COC(=O)NC
inactive: dose: 12.5 mg/kg/injection, schedule: Q01DX005 (ip), vehicle: distilled water + Tween-80 93 % of control | dose: 25.0 mg/kg/injection, schedule: Q01DX005 (ip), vehicle: distilled water + Tween-80 95 % of control | dose: 50.0 mg/kg/injection, schedule: Q01DX005 (ip), vehicle: distilled water + Tween-80 98 % of control | dose: 100.0 mg/kg/injection, schedule: Q01DX005 (ip), vehicle: distilled water + Tween-80 86 % of control

CC(=O)Nc1cc2c(cc1Br)-c1ccccc1C2O (configuration not stated)
inactive: dose: 0.63 mg/kg/injection, schedule: Q01DX009 (ip), vehicle: saline with Tween-80 100 % of control | dose: 1.25 mg/kg/injection, schedule: Q01DX009 (ip), vehicle: saline with Tween-80 109 % of control | dose: 2.5 mg/kg/injection, schedule: Q01DX009 (ip), vehicle: saline with Tween-80 109 % of control | dose: 5.0 mg/kg/injection, schedule: Q04DX003 (ip), vehicle: saline with Tween-80 90 % of control | dose: 10.0 mg/kg/injection, schedule: Q04DX003 (ip), vehicle: saline with Tween-80 104 % of control | dose: 20.0 mg/kg/injection, schedule: Q01DX009 (ip), vehicle: saline with Tween-80 90 % of control | dose: 20.0 mg/kg/injection, schedule: Q04DX003 (ip), vehicle: saline with Tween-80 100 % of control

Cc1ccc(Cl)cc1NC(=O)OCCN(C)C(=O)Nc1cc(Cl)ccc1C
inactive: dose: 15.0 mg/kg/injection, schedule: Q01DX005 (ip), vehicle: Klucel (hydroxypropylcellulose) (HPC) 98 % of control | dose: 30.0 mg/kg/injection, schedule: Q01DX005 (ip), vehicle: Klucel (hydroxypropylcellulose) (HPC) 90 % of control | dose: 60.0 mg/kg/injection, schedule: Q01DX005 (ip), vehicle: Klucel (hydroxypropylcellulose) (HPC) 96 % of control

O=C1CCCCCCC1C1SCCS1 (configuration not stated)
inactive: [4] 102 % of control | [5] 109 % of control | [6] 114 % of control

COc1ccc(NC(=O)Nc2ccc(NC(C)=O)cc2)c(OC)c1
inactive: dose: 15.0 mg/kg/injection, schedule: Q01DX005 (ip), vehicle: saline with Tween-80 93 % of control | dose: 30.0 mg/kg/injection, schedule: Q01DX005 (ip), vehicle: saline with Tween-80 92 % of control | [13] 86 % of control | [14] 88 % of control

O=[N+]([O-])c1ccc(NC(c2ccccc2)S(=O)(=O)O)cc1 (configuration not stated)
inactive: dose: 50.0 mg/kg/injection, schedule: Q01DX009 (ip), vehicle: saline 119 % of control | [2] 109 % of control | [3] 123 % of control

N#CN(Cc1ccccc1)C(c1ccccc1)(c1ccccc1)c1ccccc1
inactive: dose: 100.0 mg/kg/injection, schedule: Q01DX001 (ip), vehicle: Klucel (hydroxypropylcellulose) (HPC) 90 % of control | dose: 200.0 mg/kg/injection, schedule: Q01DX001 (ip), vehicle: Klucel (hydroxypropylcellulose) (HPC) 91 % of control

COc1ccc(C(=O)CC(=O)CCC(=O)Nc2ccc(Cl)cc2Cl)cc1
inactive: [13] 103 % of control | [15] 101 % of control | [14] 92 % of control

CCC(O)C(C[N+](=O)[O-])C(=O)OC (configuration not stated)
inactive: dose: 50.0 mg/kg/injection, schedule: Q01DX005 (ip), vehicle: saline 109 % of control | dose: 100.0 mg/kg/injection, schedule: Q01DX005 (ip), vehicle: saline 107 % of control | dose: 200.0 mg/kg/injection, schedule: Q01DX005 (ip), vehicle: saline 102 % of control

OC1CC2CCC(C1)N2 (configuration not stated)
inactive: [7] 100 % of control | [8] 96 % of control

CSc1nc(NC2OC(COC(C)=O)C(OC(C)=O)C(OC(C)=O)C2OC(C)=O)c(N=CC=Nc2c(NC3OC(COC(C)=O)C(OC(C)=O)C(OC(C)=O)C3OC(C)=O)nc(SC)[nH]c2=O)c(=O)[nH]1 (configuration not stated)
inactive: [13] 89 % of control | [15] 99 % of control | [14] 111 % of control
